Key:
corn = assay: Test A pre-/postemergence herbicide test; type: in vivo, Zea mays; conditions: Postemergence
Outline: (§1)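 Greenhouse pot test with pre- and postemergence application of surfactant-containing solvent formulations. Postemergence plants were 2–10 cm, one- to two-leaf stage. Response scored visually after ~10 days, 0 (no effect) to 100 (complete control).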

nutsedge, yellow = assay: Test C pre-/postemergence herbicide test; type: in vivo, Cyperus esculentus
Outline: (§2)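 Greenhouse pots; formulation = non-phytotoxic solvent mix + surfactant. PRE onto seeds in loam:sand; POST at 1–4 leaves (2–18 cm) in peat moss/vermiculite medium. Read-out: visual % control vs untreated, day 13–15.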

galium = assay: Test C pre-/postemergence herbicide test; type: in vivo, Galium aparine; conditions: Preemergence
Outline: as §2

pigweed [1] = assay: Test A pre-/postemergence herbicide test; type: in vivo, Amaranthus retroflexus
Outline: as §1

giant foxtail = assay: Test A pre-/postemergence herbicide test; type: in vivo, Setaria faberii
Outline: as §1

ryegrass, Italian = assay: Test C pre-/postemergence herbicide test; type: in vivo, Lolium multiflorum
Outline: as §2

rice = assay: Test B flooded paddy test; type: in vivo, Oryza sativa; conditions: 500 g ai/ha, Flood; scale of 0 to 100 where 0 is no effect and 100 is complete control
Outline: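 Treatment was made at the 2-leaf stage by dosing the standing floodwater, kept 3 cm above soil level for the whole test. Greenhouse exposure lasted 13 to 15 days. Response is a visual percent rating relative to controls, where a dash indicates no test result.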

ragweed = assay: Test C pre-/postemergence herbicide test; type: in vivo, Ambrosia elatior
Outline: as §2

waterhemp = assay: Test C pre-/postemergence herbicide test; type: in vivo, Amaranthus rudis
Outline: as §2

pigweed [2] = assay: Test C pre-/postemergence herbicide test; type: in vivo, Amaranthus retroflexus
Outline: as §2

johnsongrass = assay: Test C pre-/postemergence herbicide test; type: in vivo, Sorghum halepense
Outline: as §2

[3] = Postemergence, 31 g ai/ha, scale 0 to 100 (0 no effect, 100 complete control)
[4] = Postemergence, 62 g ai/ha, scale 0 (no effect) to 100 (complete control)
[5] = Postemergence, 250 g ai/ha, scale 0 to 100 (0 no effect, 100 complete control)
[6] = Preemergence, 31 g ai/ha, scale 0 to 100, 0 is no effect and 100 is complete control
[7] = Preemergence, 62 g ai/ha, scale 0 to 100 (0 no effect, 100 complete control)
[8] = Preemergence, 125 g ai/ha, scale 0 to 100 (0 no effect, 100 complete control)
[9] = Postemergence, 125 g ai/ha, visual rating on 0 to 100 scale (0 no effect, 100 complete control), approx. 10 days
[10] = Postemergence, 500 g ai/ha, 0 to 100 scale (0 no effect, 100 complete control)
[11] = Preemergence, 125 g ai/ha, 0 to 100 scale where 0 is no effect and 100 is complete control
[12] = Preemergence, 500 g ai/ha, visual rating on 0 to 100 scale (0 no effect, 100 complete control)
[13] = Postemergence, 125 g ai/ha, scale 0 to 100 (0 no effect, 100 complete control)

CN1CC(c2ccc(C(F)(F)F)cc2)C(C(=O)Nc2cccc(F)c2F)C1=O (centres unmarked) [Compound 306]
Plant response rating, Corn (corn; 125 g ai/ha, visual rating on 0 to 100 scale (0 no effect, 100 complete control), approx. 10 days): 50
Plant response rating, Corn (corn; 500 g ai/ha, 0 to 100 scale (0 no effect, 100 complete control)): 70
Plant response rating, Nutsedge, Yellow (nutsedge, yellow; [3]): 0
Plant response rating, Nutsedge, Yellow (nutsedge, yellow; [4]): 0
Plant response rating, Nutsedge, Yellow (nutsedge, yellow; [5]): 0
Nutsedge, Yellow plant response rating (nutsedge, yellow; [6]): 0
Nutsedge, Yellow plant response rating (nutsedge, yellow; [7]): 0
Plant response rating, Nutsedge, Yellow (nutsedge, yellow; [8]): 0
Plant response rating (scale of 0 to 100), Nutsedge, Yellow (nutsedge, yellow; Preemergence, 250 g ai/ha): 10
Galium plant response rating (galium; 31 g ai/ha, scale 0 to 100, 0 is no effect and 100 is complete control): 90
Galium plant response rating (galium; 62 g ai/ha, scale 0 to 100 (0 no effect, 100 complete control)): 60
Plant response rating, Galium (galium; 125 g ai/ha, scale 0 to 100 (0 no effect, 100 complete control)): 90
Plant response rating (scale of 0 to 100), Galium (galium; 250 g ai/ha): 90
Plant response rating, Pigweed (pigweed [1]; [9]): 70
Plant response rating, Pigweed (pigweed [1]; [10]): 80
Plant response rating, Pigweed (pigweed [1]; [11]): 80
Pigweed plant response rating (pigweed [1]; [12]): 90
Plant response rating, Foxtail, Giant (giant foxtail; [9]): 80
Plant response rating, Foxtail, Giant (giant foxtail; [10]): 80
Plant response rating, Foxtail, Giant (giant foxtail; [11]): 90
Foxtail, Giant plant response rating (giant foxtail; [12]): 90
Plant response rating, Ryegrass, Italian (ryegrass, Italian; [3]): 0
Plant response rating, Ryegrass, Italian (ryegrass, Italian; [4]): 0
Plant response rating, Ryegrass, Italian (ryegrass, Italian; [13]): 5
Plant response rating, Ryegrass, Italian (ryegrass, Italian; [5]): 20
Ryegrass, Italian plant response rating (ryegrass, Italian; [7]): 40
Plant response rating, Ryegrass, Italian (ryegrass, Italian; [8]): 55
Plant response rating (scale of 0 to 100), Ryegrass, Italian (ryegrass, Italian; Preemergence, 250 g ai/ha): 70
Plant response rating, Rice (rice): 50
Plant response rating, Ragweed (ragweed; [3]): 60
Plant response rating, Ragweed (ragweed; [4]): 55
Plant response rating, Ragweed (ragweed; [13]): 80
Plant response rating, Ragweed (ragweed; [5]): 85
Ragweed plant response rating (ragweed; [7]): 75
Plant response rating, Ragweed (ragweed; [8]): 75
Plant response rating (scale of 0 to 100), Ragweed (ragweed; Preemergence, 250 g ai/ha): 80
Plant response rating, Waterhemp (waterhemp; [3]): 65
Plant response rating, Waterhemp (waterhemp; [4]): 65
Plant response rating, Waterhemp (waterhemp; [13]): 80
Plant response rating, Waterhemp (waterhemp; [5]): 80
Waterhemp plant response rating (waterhemp; [7]): 85
Plant response rating, Waterhemp (waterhemp; [8]): 85
Plant response rating (scale of 0 to 100), Waterhemp (waterhemp; Preemergence, 250 g ai/ha): 90
Plant response rating, Pigweed (pigweed [2]; [3]): 75
Plant response rating, Pigweed (pigweed [2]; [4]): 85
Plant response rating, Pigweed (pigweed [2]; [13]): 85
Plant response rating, Pigweed (pigweed [2]; [5]): 90
Pigweed plant response rating (pigweed [2]; [6]): 80
Pigweed plant response rating (pigweed [2]; [7]): 85
Plant response rating, Pigweed (pigweed [2]; [8]): 85
Plant response rating (scale of 0 to 100), Pigweed (pigweed [2]; Preemergence, 250 g ai/ha): 90
Plant response rating, Johnsongrass (johnsongrass; [3]): 0
Plant response rating, Johnsongrass (johnsongrass; [4]): 0
Plant response rating, Johnsongrass (johnsongrass; [13]): 0
Plant response rating, Johnsongrass (johnsongrass; [5]): 0
Johnsongrass plant response rating (johnsongrass; [6]): 35
Johnsongrass plant response rating (johnsongrass; [7]): 55
Plant response rating, Johnsongrass (johnsongrass; [8]): 80
Plant response rating (scale of 0 to 100), Johnsongrass (johnsongrass; Preemergence, 250 g ai/ha): 85

From patent publication US10294202B2, “Pyrrolidinones as herbicides” (FMC Corporation, priority 2013, dated 2019)
